≈ marks a conversion by molar mass, not a printed value. Where two headings read alike, the source gives them in different places.
How the values were obtained:
Format in all cases: cell-based
[1] = test system: Candida albicans BNCC186382; experiment: MIC by microdilution method, sensitive Candida albicans; details: for MIC: Candida albicans, read-out: MIC Candida albicans
From the text: (§1) Used bacteria: including drug-resistant bacteria and sensitive bacteria: the used sensitive strains include Cryptococcus neoformans BNCC225501, Candida albicans BNCC186382, Aspergillus fumigatus Fresenius BNCC338385, Escherichia coli BNCC336902, Staphylococcus aureus BNCC186335 and Pseudomonas aeruginosa Migula BNCC337940, and the used drug-resistant Candida albicans is clinically isolated azole multi-drug resistant Candida albicans (CA10) donated by Qianfoshan Hospital in Shandong Province. The strains are stored in normal saline containing 20% glycerol at −80° C. for a long time. Before operation, the strains are lined and transferred to a YPD solid plate, and subjected to static culture at 30° C. for 24 h; single colonies are selected and transferred to a YPD liquid medium, and cultured at 200 rpm at 30° C. overnight; and the overnight cultured bacterial solution is inoculated into a new YPD liquid medium at a ratio of about 1:100, and subjected to shaking culture at 200 rpm at 30° C. for 4 h so that Candida albicans is in a logarithmic phase.
(§2) Culture medium: the culture medium used by the microdilution method is RPMI-1640 culture medium (Gibco).
(§3) 1.2 Operation and results of detection of minimum inhibitory concentration (MIC) of the compounds and the azole drugs by the microdilution method: the MIC of the synthesized compound and the azole drug fluconazole for the standard strains is detected by the microdilution method according to fungal sensitivity detection method (M27-A3) established by the Clinical and Laboratory Standards Institute (CLSI). Specific steps are as follows: the prepared strain concentration is adjusted to 0.5-2.5×10^3 CFU/mL by using RPMI-1640 medium. 200 μL of bacterial solution containing the highest concentration of the drug to be detected is added into the first well of a 96-well plate, and 100 μL of blank bacterial solution without drug is added into each of the other wells; the bacterial solution is diluted to a series of concentration gradients by a double gradient dilution method; the well plate is subjected to static culture at constant temperature of 35° C. for 24 h; after the absorbance (OD) of each concentration gradient at 570 nm is detected by a microplate reader and the absorbance of a blank medium is subtracted, the growth rate=dosing hole value/control hole value ×100%, the inhibition rate=1−growth rate, and the minimum concentration with the inhibition rate greater than 80% is the minimum inhibitory concentration (MIC) value.

[2] = test system: Aspergillus fumigatus Fresenius BNCC338385; experiment: MIC by microdilution method, sensitive Aspergillus fumigatus Fresenius; details: 24 h; for MIC: Aspergillus fumigatus, read-out: MIC Aspergillus fumigatus Fresenius
From the text: as §1, §2, §3

[3] = test system: Cryptococcus neoformans BNCC225501; experiment: MIC by microdilution method, sensitive Cryptococcus neoformans; details: for MIC: Cryptococcus neoformans, read-out: MIC Cryptococcus neoformans
From the text: as §1, §2, §3

[4] = test system: Staphylococcus aureus BNCC186335; experiment: MIC by microdilution method, sensitive Staphylococcus aureus; details: read-out: MIC Staphylococcus aureus
From the text: as §1, §2, §3

[5] = test system: Drug-resistant Candida albicans CA10; experiment: MIC by microdilution method, drug-resistant Candida albicans CA10; details: clinically isolated azole multi-drug resistant strain CA10; 24 h
From the text: as §1, §2, §3

[6] = test system: Escherichia coli BNCC336902; experiment: MIC by microdilution method, sensitive Escherichia coli; details: read-out: MIC Escherichia coli
From the text: as §1, §2, §3

[7] = test system: Pseudomonas aeruginosa Migula BNCC337940; experiment: MIC by microdilution method, sensitive Pseudomonas aeruginosa Migula; details: 24 h, read-out: MIC Pseudomonas aeruginosa Migula
From the text: as §1, §2, §3

[8] = test system: Candida albicans CA10; experiment: Checkerboard microdilution assay of compound combined with fluconazole, FICI model; details: Candida albicans; CA10; fluconazole alone; read-out: MIC of azole (fluconazole) used separately
Description: The concentration of Candida albicans CA10 is adjusted to 0.5-2.5×10^3 CFU/mL by using RPMI-1640 medium, and the diluted bacterial solution is used for preparing a working solution of the compound and the azole drug with double concentration gradient. 50 μl of working solution of double concentration of azole drugs and working solution of double concentration of the compound to be detected at each concentration gradient are added in the longitudinal (A-H) direction and transverse (1-12) direction of the 96-well plate respectively, so that the final drug concentration range of fluconazole is 4-64 μg/ml, and the drug concentration range of the compound is 256-16 μg/ml. The 96-well plate is cultured in a constant temperature incubator at 35° C. for 24 h. The amount of viable bacteria is detected with an XTT cell proliferation assay kit, and the absorbance of each well at 490 nm wavelength is detected by the microplate reader. Growth rate=dosing well value/control well value×100%, and inhibition rate=1−growth rate. The MIC when the inhibition rate is about 80% is a break point of the combination of two drugs.
The combination data of the compound and the azole drug collected by the checkerboard microdilution assay are analyzed by an FICI (fractional inhibitory concentration index) model, and the interaction effects are evaluated.
The FICI model can be expressed by the following formula: […]
Wherein: MICA and MICB are MIC values of drug A and drug B used separately, while MICAB and MICBA are the concentrations of drug A and drug B corresponding to the minimum effective dose of the combination of drug A and drug B.

[9] = sensitive strain, 35° C., 24 h, minimum concentration with inhibition rate greater than 80%
[10] = sensitive strain, 35° C., minimum concentration with inhibition rate greater than 80%
[11] = BNCC186382, sensitive strain, 35° C., 24 h, minimum concentration with inhibition rate greater than 80%
[12] = BNCC186335, sensitive strain, 35° C., 24 h, minimum concentration with inhibition rate greater than 80%
[13] = BNCC225501, sensitive strain, 35° C., 24 h, minimum concentration with inhibition rate greater than 80%
[14] = BNCC336902, sensitive strain, 35° C., 24 h, minimum concentration with inhibition rate greater than 80%

Compound	MIC Candida albicans [1, 9]	MIC Aspergillus fumigatus Fresenius [2, 10]	MIC Cryptococcus neoformans [3, 9]	MIC ([1]; BNCC186382, 24 h)	MIC [2]	MIC ([4]; BNCC186335, 24 h)	MIC ([3]; BNCC225501, 24 h)	MIC80 Drug-resistant Candida albicans CA10 [5]	MIC ([6]; BNCC336902, 24 h)	MIC [7]	MIC [1, 11]	MIC [2, 10]	MIC [4, 12]	MIC [3, 13]	MIC [6, 14]	MIC [7, 10]	MIC [8]
C[C@@H]1[C@H](O)[C@@H](C)/C=C/C=C/C=C/C=C/C=C/C=C/C=C/[C@H](O[C@@H]2O[C@H](C)[C@@H](O)[C@H](N)[C@@H]2O)C[C@@H]2O[C@](O)(C[C@@H](O)C[C@@H](O)[C@H](O)CC[C@@H](O)C[C@@H](O)CC(=O)O[C@H]1C)C[C@H](O)[C@H]2C(=O)O [Amphotericin B, amphotericin B, reference compound]	2 µg/mL (≈ 2.16 µM)	16 µg/mL (≈ 17.3 µM)	64 µg/mL (≈ 69.3 µM)	–	–	–	–	–	–	–	–	–	–	–	–	–	–
COc1cccc(-c2cc3ccccc3[nH]2)c1 [Compound 1]	–	–	–	16 µg/mL (≈ 71.7 µM)	8 µg/mL (≈ 35.8 µM)	64 µg/mL (≈ 287 µM)	4 µg/mL (≈ 17.9 µM)	> 256 µg/mL	4 µg/mL (≈ 17.9 µM)	8 µg/mL (≈ 35.8 µM)	–	–	–	–	–	–	–
COc1ccc2cc(-c3ccccc3)[nH]c2c1 [Compound 3]	–	–	–	–	–	–	–	> 256 µg/mL	–	–	256 µg/mL (≈ 1150 µM)	256 µg/mL (≈ 1150 µM)	256 µg/mL (≈ 1150 µM)	256 µg/mL (≈ 1150 µM)	256 µg/mL (≈ 1150 µM)	64 µg/mL (≈ 287 µM)	–
c1ccc(-c2cc3ccccc3[nH]2)cc1 [Compound 6]	–	–	–	> 256 µg/mL	> 256 µg/mL	> 256 µg/mL	256 µg/mL (≈ 1320 µM)	> 256 µg/mL	> 256 µg/mL	> 256 µg/mL	–	–	–	–	–	–	–
Cc1cccc(-c2cc3ccccc3[nH]2)c1 [Compound 7]	–	–	–	256 µg/mL (≈ 1240 µM)	256 µg/mL (≈ 1240 µM)	8 µg/mL (≈ 38.6 µM)	256 µg/mL (≈ 1240 µM)	> 256 µg/mL	8 µg/mL (≈ 38.6 µM)	256 µg/mL (≈ 1240 µM)	–	–	–	–	–	–	–
Cc1ccc(-c2cc3ccccc3[nH]2)cc1 [Compound 8]	–	–	–	256 µg/mL (≈ 1240 µM)	256 µg/mL (≈ 1240 µM)	256 µg/mL (≈ 1240 µM)	256 µg/mL (≈ 1240 µM)	> 256 µg/mL	8 µg/mL (≈ 38.6 µM)	256 µg/mL (≈ 1240 µM)	–	–	–	–	–	–	–
Fc1ccc(-c2cc3ccccc3[nH]2)cc1 [Compound 10]	–	–	–	> 256 µg/mL	> 256 µg/mL	> 256 µg/mL	> 256 µg/mL	> 256 µg/mL	> 256 µg/mL	> 256 µg/mL	–	–	–	–	–	–	–
Clc1ccc(-c2cc3ccccc3[nH]2)cc1 [Compound 11]	–	–	–	> 256 µg/mL	> 256 µg/mL	> 256 µg/mL	> 256 µg/mL	> 256 µg/mL	> 256 µg/mL	> 256 µg/mL	–	–	–	–	–	–	–
O=[N+]([O-])c1cccc(-c2cc3ccccc3[nH]2)c1 [Compound 12]	–	–	–	4 µg/mL (≈ 16.8 µM)	4 µg/mL (≈ 16.8 µM)	256 µg/mL (≈ 1070 µM)	8 µg/mL (≈ 33.6 µM)	> 256 µg/mL	8 µg/mL (≈ 33.6 µM)	2 µg/mL (≈ 8.39 µM)	–	–	–	–	–	–	–
FC(F)(F)c1ccc(-c2cc3ccccc3[nH]2)cc1 [Compound 13]	–	–	–	256 µg/mL (≈ 980 µM)	256 µg/mL (≈ 980 µM)	256 µg/mL (≈ 980 µM)	256 µg/mL (≈ 980 µM)	> 256 µg/mL	256 µg/mL (≈ 980 µM)	16 µg/mL (≈ 61.2 µM)	–	–	–	–	–	–	–
c1ccc2[nH]c(-c3ccc4c(c3)OCO4)cc2c1 [Compound 15]	–	–	–	256 µg/mL (≈ 1080 µM)	256 µg/mL (≈ 1080 µM)	256 µg/mL (≈ 1080 µM)	256 µg/mL (≈ 1080 µM)	> 256 µg/mL	256 µg/mL (≈ 1080 µM)	16 µg/mL (≈ 67.4 µM)	–	–	–	–	–	–	–
Cc1ccc2[nH]c(-c3ccccc3)cc2c1 [Compound 16]	–	–	–	–	–	–	–	> 256 µg/mL	–	–	256 µg/mL (≈ 1240 µM)	256 µg/mL (≈ 1240 µM)	256 µg/mL (≈ 1240 µM)	256 µg/mL (≈ 1240 µM)	16 µg/mL (≈ 77.2 µM)	256 µg/mL (≈ 1240 µM)	–
COc1ccc2[nH]c(-c3ccccc3)cc2c1 [Compound 18]	–	–	–	–	–	–	–	> 256 µg/mL	–	–	256 µg/mL (≈ 1150 µM)	256 µg/mL (≈ 1150 µM)	256 µg/mL (≈ 1150 µM)	256 µg/mL (≈ 1150 µM)	256 µg/mL (≈ 1150 µM)	256 µg/mL (≈ 1150 µM)	–
COC(=O)c1ccc2[nH]c(-c3ccccc3)cc2c1 [Compound 19]	–	–	–	–	–	–	–	> 256 µg/mL	–	–	8 µg/mL (≈ 31.8 µM)	16 µg/mL (≈ 63.7 µM)	8 µg/mL (≈ 31.8 µM)	256 µg/mL (≈ 1020 µM)	256 µg/mL (≈ 1020 µM)	32 µg/mL (≈ 127 µM)	–
COC(=O)c1ccc2cc(-c3ccccc3)[nH]c2c1 [Compound 20]	–	–	–	–	–	–	–	> 256 µg/mL	–	–	32 µg/mL (≈ 127 µM)	256 µg/mL (≈ 1020 µM)	32 µg/mL (≈ 127 µM)	256 µg/mL (≈ 1020 µM)	256 µg/mL (≈ 1020 µM)	8 µg/mL (≈ 31.8 µM)	–
Clc1ccc2[nH]c(-c3ccccc3)cc2c1 [Compound 21]	–	–	–	–	–	–	–	> 256 µg/mL	–	–	> 256 µg/mL	> 256 µg/mL	> 256 µg/mL	> 256 µg/mL	> 256 µg/mL	> 256 µg/mL	–
Fc1ccc2[nH]c(-c3ccccc3)cc2c1 [Compound 22]	–	–	–	–	–	–	–	> 256 µg/mL	–	–	256 µg/mL (≈ 1210 µM)	256 µg/mL (≈ 1210 µM)	16 µg/mL (≈ 75.7 µM)	8 µg/mL (≈ 37.9 µM)	32 µg/mL (≈ 151 µM)	256 µg/mL (≈ 1210 µM)	–
Brc1ccc2cc(-c3ccccc3)[nH]c2c1 [Compound 23]	–	–	–	–	–	–	–	> 256 µg/mL	–	–	256 µg/mL (≈ 941 µM)	256 µg/mL (≈ 941 µM)	256 µg/mL (≈ 941 µM)	256 µg/mL (≈ 941 µM)	256 µg/mL (≈ 941 µM)	8 µg/mL (≈ 29.4 µM)	–
OC(Cn1cncn1)(Cn1cncn1)c1ccc(F)cc1F [Fluconazole, fluconazole, reference compound]	–	–	–	–	–	–	–	> 128 µg/mL	–	–	2 µg/mL (≈ 6.53 µM)	2 µg/mL (≈ 6.53 µM)	–	2 µg/mL (≈ 6.53 µM)	–	–	> 128 µg/mL
[H]/N=C(/N)N[C@H]1[C@H](O)[C@@H](O)[C@H](O[C@@H]2O[C@@H](C)[C@](O)(C=O)[C@H]2O[C@@H]2O[C@@H](CO)[C@H](O)[C@@H](O)[C@@H]2NC)[C@@H](N/C(N)=N\[H])[C@@H]1O [Streptomycin, reference compound]	–	–	–	–	–	–	–	–	–	–	–	–	2 µg/mL (≈ 3.44 µM)	–	2 µg/mL (≈ 3.44 µM)	2 µg/mL (≈ 3.44 µM)	–

From patent US20250154099A1, “PREPARATION METHOD OF 2-PHENYLINDOLE DERIVATIVES AND APPLICATION THEREOF” (Shihezi University, priority 2022, published 2025)
